The structures appear in SMILES notation.

Assay [1] deals with 3-nitrotyrosine protein adducts in dopaminergic neurons of the substantia nigra. In words: Protein nitration in dopaminergic neurons of mice treated with MPTP. Type of assay: in vivo, C57B1/6 mice. The settings on record: 50 mg/Kg oral gavage in corn oil once per day for four days following MPTP; substantia nigra 7 days following MPTP. How it is done:
C57B1/6 mice were treated with MPTP (2 injections of 15 mg/kg, 12 hours apart) in the presence and absence of DIM-C-pPhOCH3 (DIM5) and assessed for 3-nitrotyrosine protein adducts (a marker of nitrosative stress and excessive NO/peroxynitrite formation). DIM-C-pPhOCH3 was administered once per day for four days following MPTP treatment by oral gavage in corn oil at 50 mg/Kg and frozen sections through the substantia nigra were prepared 7 days following MPTP. Immunofluorescence images were collected using a 40× Zeiss PlanApochromat objective for tyrosine hydroxylase (green), 3-nitrotyrosine (red), and DAPI (blue; DNA/nuclear stain). […] DIM-C-pPhOCH3 prevented protein nitration in dopaminergic neurons in mice treated with MPTP.

Assay [2] has as its system proximal NF-κB enhancer element of the Nos2 promoter. In words: Chromatin immunoprecipitation (ChIP) at the proximal NF-κB enhancer element of the Nos2 promoter in astrocytes. The settings on record: 10 μM co-treatment; FIG. 5. Type of assay: cell-based, mouse. How it is done: Chromatin Immunoprecipitation (ChIP). ChIP procedures were adapted from a previously published report (Weinmann and Farnham, 2002) and optimized for primary astrocytes according to recent studies from our laboratory. Astrocytes were grown to confluence in 10 cm plates (Approx. 8.8×10^6 cells) and were treated for 3 hours with MPTP (10 μM), TNF-α (10 pg/ml) and IFN-γ (1 ng/ml) with or without DIM-C-pPhtBu (10 μM), rosiglitazone (10 μM) or a DMSO vehicle control for 3 hours prior to analysis. DNA was sheared into approximate 500 bp fragments by three ten-second pulses using a Tekmar Sonic Disrupter (Tekmar Co., Cincinnati, Ohio) set at 30% output, followed by collection of 10% input controls and addition of 2 μg precipitating antibody. Immune complexes were allowed to form overnight at 4° C. with gentle agitation, followed by the addition of protein-G magnetic beads (Active Motif, Carlsbad, Calif.) for an additional 90 min. Immunopurified DNA was isolated via phenol/chloroform extraction and subject to PCR using primers designed around the proximal murine Nos2 NF-κB binding region (Xie et al., 1992) (forward: 5′-ATGGCCTTGCATGAGGATACACCA-3′ Chromatin Immunoprecipitation (ChIP). ChIP procedures were adapted from a previously published report (Weinmann and Farnham, 2002) and optimized for primary astrocytes according to recent studies from our laboratory. Astrocytes were grown to confluence in 10 cm plates (Approx. 8.8×10^6 cells) and were treated for 3 hours with MPTP (10 μM), TNF-α (10 pg/ml) and IFN-γ (1 ng/ml) with or without DIM-C-pPhtBu (10 μM), rosiglitazone (10 μM) or a DMSO vehicle control for 3 hours prior to analysis. DNA was sheared into approximate 500 bp fragments by three ten-second pulses using a Tekmar Sonic Disrupter (Tekmar Co., Cincinnati, Ohio) set at 30% output, followed by collection of 10% input controls and addition of 2 μg precipitating antibody. Immune complexes were allowed to form overnight at 4° C. with gentle agitation, followed by the addition of protein-G magnetic beads (Active Motif, Carlsbad, Calif.) for an additional 90 min. Immunopurified DNA was isolated via phenol/chloroform extraction and subject to PCR using primers designed around the proximal murine Nos2 NF-κB binding region (Xie et al., 1992) (forward: 5′-ATGGCCTTGCATGAGGATACACCA-3′(SEQ ID NO:5); reverse: 5′-GAGTCTCAGTCTTCAACTCCCTGT-3′(SEQ ID NO:6)). Amplicons were separated by 2% agarose gel electrophoresis and stained with ethidium bromide.
To determine the mechanism by which DIM-C-pPhtBu modulates NF-κB activity, the ChIP assay was used to identify specific DNA-protein interactions at the proximal NF-κB enhancer element (-86 to -76) of the Nos2 promoter.
Primary cultured astrocytes were treated with MPTP and TNF/IFN in the presence or absence of DIM-C-pPhOCH3 (DIMS, 1 uM) or rosiglitazone (Ro, 10 uM) and cellular lysates subjected to chromatin immunoprecipitation (ChIP) assay for HDAC3 association with the proximal NF-kB binding site in the Nos2 promoter. HDAC3 is a transcriptional co-repressor of Nos2 gene expression.

Assay [3] has as its system astrocyte activation, NOS2 and NF-κB/GFP expression in striatum. In words: Anti-inflammatory efficacy in transgenic NF-κB-GFP reporter mice treated with MPTP. In kind it is in vivo, mice (C57B1/6 background). The settings on record: 50 mg/Kg oral gavage in corn oil once per day for four days following MPTP; striatum 7 days following MPTP. As for the experimental part:
Transgenic NF-κB-GFP reporter mice (C57B1/6 background) were exposed to MPTP (2 injections of 15 mg/kg, 12 hours apart) in the presence and absence of DIM-C-pPhtBu and assessed for activation of astrocytes, expression of NOS2, and expression of GFP (representing NF-kB activity). DIM-C-pPhtBu was administered once per day for four days following MPTP treatment by oral gavage in corn oil at 50 mg/Kg and frozen sections through the striatum were prepared 7 days following MPTP. Immunofluorescent images were collected using a 40× Zeiss PlanApochromat objective for GFAP as marker for astrocytes (purple), NOS2 (red), green fluorescent protein (GFP; green), and DAPI (blue; DNA stain). Co-location of red and green channels is depicted in the image as yellow. […] This activated glial phenotype was inhibited by treatment with DIM-C-pPhtBu.

Assay [4] deals with NF-κB. The settings on record: proximal p65 enhancer element; cited from earlier work.

For the compound `COc1ccc(C(c2c[nH]c3ccccc23)c2c[nH]c3ccccc23)cc1` [DIM-C-pPhOCH3, 1,1-bis(3′-indolyl)-1-(p-methoxyphenyl)methane], the “Protein nitration (3-nitrotyrosine) in dopaminergic neurons” value in assay [1] is “completely suppressed”.

For the compound `CC(C)(C)c1ccc(C(c2c[nH]c3ccccc23)c2c[nH]c3ccccc23)cc1` [DIM-C-pPhtBu, 1,1-bis(3′-indolyl)-1-(p-t-butylphenyl)methane], in assay [2], the “Binding of p65 to the Nos2 promoter induced by MPTP and cytokines” value is “blocked”; the “Recruitment of PPAR-γ to the proximal NF-κB response element” value is “did not recruit PPAR-γ”; the “Stabilization of NCoR2 at the proximal NF-κB response element” value is listed as “nor did it stabilize NCoR2”. Besides, in assay [3], the “MPTP-induced activated glial phenotype (hypertrophic astrocytes expressing NOS2 and NF-κB/GFP)” value is “inhibited”.

`CN(CCOc1ccc(CC2SC(=O)NC2=O)cc1)c1ccccn1` (centres unmarked) [rosiglitazone, 5-((4-(2-(methyl-2-pyridinylamino)ethoxy)phenyl)methyl)-2,4-thiazolidinedione, reference compound]: in assay [2], the “Recruitment of PPAR-γ to the proximal NF-κB response element” value is “recruited PPAR-γ” and the “Stabilization of NCoR2 at the proximal NF-κB response element” value was “prevented degradation of NCoR2”. Moreover, the “Effect on NF-κB in RAW macrophages” value in assay [4] is “antagonize NF-κB by stabilizing NCoR2”.

Values taken from patent US8580843B2, “Use of diindolylmethane (DIM) compounds and derivatives as neuroprotective agents” (Colorado State University Research Foundation, priority 2008, dated 2013).
